{"source": "paper PMC12631102", "about": "“SYT4 Interacts with PSMC6 to Facilitate Malignant Progression in Gastric Carcinoma via Activating Wnt/β-catenin Signaling” (International Journal of Biological Sciences, 2025)", "biological_target": "T1, Synaptotagmin-4 (SYT4) (Homo sapiens, UniProt Q9H2B2)", "T1 construct": "Recombinant SYT4 protein", "T1 sequence (Q9H2B2 1-425)": "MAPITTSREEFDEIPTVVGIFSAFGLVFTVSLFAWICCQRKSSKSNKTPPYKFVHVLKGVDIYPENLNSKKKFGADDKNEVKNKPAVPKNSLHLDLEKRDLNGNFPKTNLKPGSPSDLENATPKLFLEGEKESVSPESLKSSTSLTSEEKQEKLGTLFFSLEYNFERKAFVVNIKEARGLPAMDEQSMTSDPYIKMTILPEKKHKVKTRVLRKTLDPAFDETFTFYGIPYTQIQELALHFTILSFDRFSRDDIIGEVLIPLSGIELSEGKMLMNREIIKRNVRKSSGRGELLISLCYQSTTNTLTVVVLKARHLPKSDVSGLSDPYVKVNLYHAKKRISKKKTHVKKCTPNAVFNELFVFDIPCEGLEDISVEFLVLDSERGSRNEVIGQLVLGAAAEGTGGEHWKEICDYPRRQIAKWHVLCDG", "assay": "SPR (Biacore T200, SYT4 immobilized on CM5 chip)", "assay_type": "binding"}
{"smiles": "C=CC(=O)Nc1ccc2[nH]c(=O)n(C3CCN(Cc4ccc(-c5nc6cc[nH]c(=O)c6cc5-c5ccccc5)cc4)CC3)c2c1", "note": "[borussertib]", "values": [{"measurement": "Kd", "value": 16, "unit": "µM"}]}
